# According to US9346815B2, “5-chloro-2-difluoromethoxyphenyl pyrazolopyrimidine compounds, compositions and methods of use thereof” (Genentech, Inc., priority 2014, dated 2016):
# Tests used:
# [1] = molecular target: isolated recombinant JAK2 kinase domain (Homo sapiens (Human), UniProt O60674); experiment: JAK2 enzyme assay (Caliper LabChip, peptide phosphorylation); assay type: biochemical; details: 25 μM ATP
# [2] = molecular target: isolated recombinant JAK1 kinase domain (Homo sapiens (Human), UniProt P23458); experiment: JAK1 enzyme assay (Caliper LabChip, peptide phosphorylation); assay type: biochemical; details: isolated recombinant JAK1 kinase domain, 25 μM ATP
# [3] = tested on: JAK1-dependent STAT6 phosphorylation downstream of IL-13 stimulation in TF-1 human erythroleukemia cells; experiment: JAK1 pathway assay in TF-1 cells (IL-13-pSTAT6, MSD); assay type: cell-based; details: Homo sapiens, TF-1, TF-1 cells, read-out: IL13-pSTAT6 EC50_TF-1
# Summary of the method: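 Compound preincubation lasted 1 hr for BEAS-2B cells in complete growth medium and 30 min for GM-CSF-starved TF-1 cells in serum-free medium. EC50 values were determined.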
# isolated recombinant JAK2 kinase domain, sequence (O60674 849-1124): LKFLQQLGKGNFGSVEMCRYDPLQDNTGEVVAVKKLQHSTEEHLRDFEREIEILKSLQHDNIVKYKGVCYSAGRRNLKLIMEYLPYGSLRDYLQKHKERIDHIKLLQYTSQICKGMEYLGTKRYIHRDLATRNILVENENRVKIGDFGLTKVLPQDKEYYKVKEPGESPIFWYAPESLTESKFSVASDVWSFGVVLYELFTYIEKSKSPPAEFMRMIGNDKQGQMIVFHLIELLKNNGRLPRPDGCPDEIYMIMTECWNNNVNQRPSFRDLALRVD
# isolated recombinant JAK1 kinase domain, sequence (P23458 875-1153): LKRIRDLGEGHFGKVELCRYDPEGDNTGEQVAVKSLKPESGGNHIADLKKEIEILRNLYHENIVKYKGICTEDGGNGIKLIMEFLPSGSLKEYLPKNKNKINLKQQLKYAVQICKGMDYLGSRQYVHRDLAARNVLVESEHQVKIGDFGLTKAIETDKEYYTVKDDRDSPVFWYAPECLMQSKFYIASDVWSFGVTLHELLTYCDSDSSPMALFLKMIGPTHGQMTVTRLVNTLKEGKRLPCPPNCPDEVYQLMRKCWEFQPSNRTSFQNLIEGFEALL
Ki [1],Ki [2],EC50 [3],Structure (SMILES)
0.2 nM,0.71 nM,12.3 nM,"Nc1nn2cccnc2c1C(=O)Nc1cn([C@H]2CCNC2)nc1-c1cc(Cl)ccc1OC(F)F [Example 186, 2-amino-N-[3-[5-chloro-2-(difluoromethoxy)phenyl]-1-[(3S)-pyrrolidin-3-yl]pyrazol-4-yl]pyrazolo[1,5-a]pyrimidine-3-carboxamide]"
2.92 nM,2.93 nM,10.5 nM,"CN(C)CCC1CCN(c2nc(-c3cc(Cl)ccc3OC(F)F)c(NC(=O)c3cnn4cccnc34)s2)CC1 [Example 191, N-[4-[5-chloro-2-(difluoromethoxy)phenyl]-2-[4-[2-(dimethylamino)ethyl]-1-piperidyl]thiazol-5-yl]pyrazolo[1,5-a]pyrimidine-3-carboxamide]"
3.72 nM,5 nM,272 nM,"CN(CCc1ccccc1)C1CCN(c2nc(-c3cc(Cl)ccc3OC(F)F)c(NC(=O)c3cnn4cccnc34)s2)CC1 [Example 192, N-[4-[5-chloro-2-(difluoromethoxy)phenyl]-2-[4-[methyl(2-phenylethyl)amino]-1-piperidyl]thiazol-5-yl]pyrazolo[1,5-a]pyrimidine-3-carboxamide]"
1.46 nM,2.23 nM,23.5 nM,"CN(CCCC(N)=O)C1CCN(c2nc(-c3cc(Cl)ccc3OC(F)F)c(NC(=O)c3cnn4cccnc34)s2)CC1 [Example 193, N-[2-[4-[(4-amino-4-oxo-butyl)-methyl-amino]-1-piperidyl]-4-[5-chloro-2-(difluoromethoxy)phenyl]thiazol-5-yl]pyrazolo[1,5-a]pyrimidine-3-carboxamide]"
1.44 nM,2.28 nM,17.4 nM,"O=C(Nc1sc(N2CCC(N3CC(F)C3)CC2)nc1-c1cc(Cl)ccc1OC(F)F)c1cnn2cccnc12 [Example 194, N-[4-[5-chloro-2-(difluoromethoxy)phenyl]-2-[4-(3-fluoroazetidin-1-yl)-1-piperidyl]thiazol-5-yl]pyrazolo[1,5-a]pyrimidine-3-carboxamide]"
0.86 nM,1.36 nM,16.5 nM,"O=C(Nc1sc(N2CC(N3CCCCC3)C2)nc1-c1cc(Cl)ccc1OC(F)F)c1cnn2cccnc12 [Example 195, N-[4-[5-chloro-2-(difluoromethoxy)phenyl]-2-[3-(1-piperidyl)azetidin-1-yl]thiazol-5-yl]pyrazolo[1,5-a]pyrimidine-3-carboxamide]"
1.05 nM,1.74 nM,17.4 nM,"O=C(Nc1sc(N2CCC(N3CC(F)(F)C3)CC2)nc1-c1cc(Cl)ccc1OC(F)F)c1cnn2cccnc12 [Example 196, N-[4-[5-chloro-2-(difluoromethoxy)phenyl]-2-[4-(3,3-difluoroazetidin-1-yl)-1-piperidyl]thiazol-5-yl]pyrazolo[1,5-a]pyrimidine-3-carboxamide]"
1.07 nM,1.22 nM,7.3 nM,"CCCCN(C)C1CCN(c2nc(-c3cc(Cl)ccc3OC(F)F)c(NC(=O)c3cnn4cccnc34)s2)CC1 [Example 199, N-[2-[4-[butyl(methyl)amino]-1-piperidyl]-4-[5-chloro-2-(difluoromethoxy)phenyl]thiazol-5-yl]pyrazolo[1,5-a]pyrimidine-3-carboxamide]"
3.76 nM,5.05 nM,184 nM,"CN(Cc1ccccc1)C1CCN(c2nc(-c3cc(Cl)ccc3OC(F)F)c(NC(=O)c3cnn4cccnc34)s2)CC1 [Example 201, N-[2-[4-[benzyl(methyl)amino]-1-piperidyl]-4-[5-chloro-2-(difluoromethoxy)phenyl]thiazol-5-yl]pyrazolo[1,5-a]pyrimidine-3-carboxamide]"
1.82 nM,1.1 nM,15.8 nM,"CN(CC(F)(F)F)C1CCN(C(=O)C2CCN(c3nc(-c4cc(Cl)ccc4OC(F)F)c(NC(=O)c4cnn5cccnc45)s3)CC2)CC1 [Example 202, N-[4-[5-chloro-2-(difluoromethoxy)phenyl]-2-[4-[4-[methyl(2,2,2-trifluoroethyl)amino]piperidine-1-carbonyl]-1-piperidyl]thiazol-5-yl]pyrazolo[1,5-a]pyrimidine-3-carboxamide]"
0.69 nM,1.01 nM,23.6 nM,"O=C(Nc1sc(N2CCN(CC3CC3)CC2)nc1-c1cc(Cl)ccc1OC(F)F)c1cnn2cccnc12 [Example 207, N-[4-[5-chloro-2-(difluoromethoxy)phenyl]-2-[4-(cyclopropylmethyl)piperazin-1-yl]thiazol-5-yl]pyrazolo[1,5-a]pyrimidine-3-carboxamide]"
1.08 nM,1.38 nM,33.5 nM,"O=C(Nc1sc(N2CCN(CC(F)(F)F)CC2)nc1-c1cc(Cl)ccc1OC(F)F)c1cnn2cccnc12 [Example 208, N-[4-[5-chloro-2-(difluoromethoxy)phenyl]-2-[4-(2,2,2-trifluoroethyl)piperazin-1-yl]thiazol-5-yl]pyrazolo[1,5-a]pyrimidine-3-carboxamide]"
0.1 nM,0.16 nM,240 nM,"CCCCN(C)CC#Cc1nc(-c2cc(Cl)ccc2OC(F)F)c(NC(=O)c2cnn3cccnc23)s1 [Example 210, N-[2-[3-[butyl(methyl)amino]prop-1-ynyl]-4-[5-chloro-2-(difluoromethoxy)phenyl]thiazol-5-yl]pyrazolo[1,5-a]pyrimidine-3-carboxamide]"
1.38 nM,1.1 nM,20.9 nM,"CN1CCC2(C1)CN(C(=O)Cn1cc(NC(=O)c3cnn4cccnc34)c(-c3cc(Cl)ccc3OC(F)F)n1)C2 [Example 211, Pyrazolo[1,5-a]pyrimidine-3-carboxylic acid {3-(5-chloro-2-difluoromethoxyphenyl)-1-[2-(6-methyl-2,6-diazaspiro[3.4]oct-2-yl)-2-oxoethyl]-1H-pyrazol-4-yl}amide]"
1.93 nM,0.91 nM,30.6 nM,"CN1CCC2(CCN(C(=O)Cn3cc(NC(=O)c4cnn5cccnc45)c(-c4cc(Cl)ccc4OC(F)F)n3)C2)C1 (stereo not drawn) [Example 212, N-[3-[5-chloro-2-(difluoromethoxy)phenyl]-1-[2-(7-methyl-2,7-diazaspiro[4.4]nonan-2-yl)-2-oxo-ethyl]pyrazol-4-yl]pyrazolo[1,5-a]pyrimidine-3-carboxamide]"
1.82 nM,1.13 nM,12.5 nM,"CN1CCC2(CC1)CN(C(=O)Cn1cc(NC(=O)c3cnn4cccnc34)c(-c3cc(Cl)ccc3OC(F)F)n1)C2 [Example 216, N-[3-[5-chloro-2-(difluoromethoxy)phenyl]-1-[2-(7-methyl-2,7-diazaspiro[3.5]nonan-2-yl)-2-oxo-ethyl]pyrazol-4-yl]pyrazolo[1,5-a]pyrimidine-3-carboxamide]"
2.71 nM,1.22 nM,1170 nM,"O=C(Nc1cn(CC(=O)N2CC3(CCNC3)C2)nc1-c1cc(Cl)ccc1OC(F)F)c1cnn2cccnc12 [Example 220, N-[3-[5-chloro-2-(difluoromethoxy)phenyl]-1-[2-(2,7-diazaspiro[3.4]octan-2-yl)-2-oxo-ethyl]pyrazol-4-yl]pyrazolo[1,5-a]pyrimidine-3-carboxamide]"
1.59 nM,0.54 nM,28.9 nM,"CN1CCC2(CC1)CCN(C(=O)Cn1cc(NC(=O)c3cnn4cccnc34)c(-c3cc(Cl)ccc3OC(F)F)n1)C2 [Example 222, N-[3-[5-chloro-2-(difluoromethoxy)phenyl]-1-[2-(8-methyl-2,8-diazaspiro[4.5]decan-2-yl)-2-oxo-ethyl]pyrazol-4-yl]pyrazolo[1,5-a]pyrimidine-3-carboxamide]"
0.72 nM,0.44 nM,187 nM,"O=C(Nc1cn(CC(=O)N2CCC3(CCNC3)CC2)nc1-c1cc(Cl)ccc1OC(F)F)c1cnn2cccnc12 [Example 223, N-[3-[5-chloro-2-(difluoromethoxy)phenyl]-1-[2-(2,8-diazaspiro[4.5]decan-8-yl)-2-oxo-ethyl]pyrazol-4-yl]pyrazolo[1,5-a]pyrimidine-3-carboxamide]"
1.47 nM,0.56 nM,19.3 nM,"CN1CCC2(CCN(C(=O)Cn3cc(NC(=O)c4cnn5cccnc45)c(-c4cc(Cl)ccc4OC(F)F)n3)CC2)C1 [Example 224, N-[3-[5-chloro-2-(difluoromethoxy)phenyl]-1-[2-(2-methyl-2,8-diazaspiro[4.5]decan-8-yl)-2-oxo-ethyl]pyrazol-4-yl]pyrazolo[1,5-a]pyrimidine-3-carboxamide]"
1.11 nM,0.41 nM,41.5 nM,"O=C(Nc1cn(CC(=O)N2CCC3(CCN(CC4CCN(C(=O)OCc5ccccc5)CC4)C3)CC2)nc1-c1cc(Cl)ccc1OC(F)F)c1cnn2cccnc12 [Example 226, benzyl 4-[[8-[2-[3-[5-chloro-2-(difluoromethoxy)phenyl]-4-(pyrazolo[1,5-a]pyrimidine-3-carbonylamino)pyrazol-1-yl]acetyl]-2,8-diazaspiro[4.5]decan-2-yl]methyl]piperidine-1-carboxylate]"
2.38 nM,1.55 nM,8.6 nM,"CN1CCCN(C(=O)Cn2cc(NC(=O)c3cnn4cccnc34)c(-c3cc(Cl)ccc3OC(F)F)n2)CC1 [Example 239, N-[3-[5-chloro-2-(difluoromethoxy)phenyl]-1-[2-(4-methyl-1,4-diazepan-1-yl)-2-oxo-ethyl]pyrazol-4-yl]pyrazolo[1,5-a]pyrimidine-3-carboxamide]"
0.57 nM,1.08 nM,48.8 nM,"CN1CCCN(C(=O)Cn2cc(NC(=O)c3c(N)nn4cccnc34)c(-c3cc(Cl)ccc3OC(F)F)n2)CC1 [Example 246, 2-amino-N-[3-[5-chloro-2-(difluoromethoxy)phenyl]-1-[2-(4-methyl-1,4-diazepan-1-yl)-2-oxo-ethyl]pyrazol-4-yl]pyrazolo[1,5-a]pyrimidine-3-carboxamide]"
